Experimental data reported in US6894049B1, “Platinum complexes as antitumor agents” (AnorMED, Inc., priority 2000, dated 2005).
Where two headings read alike, the source gives them in different places.

What was measured:
CH1 = test: Cell proliferation, human cancer cell line CH1; type: cell-based; settings: read-out: concentration necessary to achieve a 50% decrease in cell proliferation
Description: (§1) The complexes of the invention were tested against human cancer cell lines grown in cell culture according to established testing procedures (described by Holford, et al., British J. Cancer 1998 77(3) 366-373). The results are given in concentrations (μM) necessary to achieve a 50% decrease in cell proliferation, with resistance factors in brackets for the cisplatin-resistant cell lines.

41MR = test: Cell proliferation, cisplatin-resistant human cancer cell line 41MR; type: cell-based; settings: for resistance factor: 41MR/41M, in brackets; for IC50: 41MR, read-out: concentration necessary to achieve a 50% decrease in cell proliferation
Description: as §1

A2780R = test: Cell proliferation, cisplatin-resistant human cancer cell line A2780R; type: cell-based; settings: for resistance factor: A2780R/A2780, in brackets; for IC50: A2780R, read-out: concentration necessary to achieve a 50% decrease in cell proliferation
Description: as §1

41M = test: Cell proliferation, human cancer cell line 41M; type: cell-based; settings: read-out: concentration necessary to achieve a 50% decrease in cell proliferation
Description: as §1

A2780 = test: Cell proliferation, human cancer cell line A2780; type: cell-based; settings: read-out: concentration necessary to achieve a 50% decrease in cell proliferation
Description: as §1

CH1R = test: Cell proliferation, cisplatin-resistant human cancer cell line CH1R; type: cell-based; settings: for resistance factor: CH1R/CH1, in brackets; for IC50: CH1R, read-out: concentration necessary to achieve a 50% decrease in cell proliferation
Description: as §1

[1] = Aqueous solubility at ambient conditions; type: physicochemical
[2] = Maximum tolerated dose in mice; type: in vivo
[3] = background statement; cited from earlier work

Compound	IC50 (CH1)	resistance factor (41MR)	IC50 (41MR)	resistance factor (A2780R)	IC50 (A2780R)	IC50 (41M)	IC50 (A2780)	resistance factor (CH1R)	IC50 (CH1R)	Aqueous Solubility [1]	maximum tolerated dose (MTD) [2]	decrease in resistance factor (A2780R; A2780/A2780R, compared to cis-ammine(2-methylpyridine)dichloroplatinum(II))	Aqueous Solubility [3]
Cc1n(C)cc[n+]1[Pt-2]([NH3+])([Cl])[Cl] [Example 7]	8.3 µM	1.6	15 µM	2.5	17.5 µM	9.3 µM	7.1 µM	1.4	12 µM	–	–	–	–
CC(=O)[O][Pt]([NH2])([Cl])([Cl])([NH]C1CCCCC1)[O]C(C)=O [bis-acetato-ammine(cyclohexylamine)dichloroplatinum(IV), reference compound]	–	1.2	0.6 µM	4.6	1.84 µM	0.5 µM	0.4 µM	4	0.4 µM	<1000 µg/mL	–	–	–
Cc1cc(C)[n+]([Pt-2]([NH3+])([Cl])[Cl])[nH]1 [Example 1, (SP-4-3)-amminedichloro(3.5-dimethylpyrazole)platinum(II)]	2.05 µM	1.3	4.5 µM	3.4	9.2 µM	3.5 µM	2.7 µM	1.9	3.8 µM	–	–	–	–
CC(=O)[O][Pt-2]([NH3+])([Cl])([Cl])([O]C(C)=O)[n+]1ccnc(C)c1C [Example 14, (OC-6-43)-amminedichlorodiacetato-(2,3-dimethylpyrazine)platinum(IV)]	9.4 µM	1.2	36 µM	–	–	29 µM	–	3.2	30 µM	–	–	–	–
Cc1c[n+]([Pt-2]([NH3+])([OH])([OH])([Cl])[Cl])c(C)[nH]1 [Example 16]	10 µM	1.5	28 µM	> 8	> 100 µM	19 µM	12.5 µM	2.1	21 µM	–	–	–	–
Cn1cc[n+]([Pt-2]([NH3+])([OH])([OH])([Cl])[Cl])c1 [Example 12, (OC-6-43)-amminedichlorodihydroxo-(1-methylimidazole)platinum(IV)]	13 µM	1.9	45 µM	4.5	77 µM	23.5 µM	17 µM	1.9	24.5 µM	–	–	–	–
Cc1n(C)cc[n+]1[Pt-2]([NH3+])([OH])([OH])([Cl])[Cl] [Example 15]	12 µM	0.9	21 µM	> 7.4	> 100 µM	23 µM	13.5 µM	1.4	16.5 µM	–	–	–	–
Cc1cc(C)[n+]([Pt-2]([NH3+])([Cl])[Cl])o1 [Example 4]	3.2 µM	–	6 µM	6.4	23.5 µM	8 µM	3.7 µM	2.5	8 µM	1270 µg/mL	–	–	–
Cc1oc(C)[n+]([Pt-2]([NH3+])([Cl])[Cl])c1C [Example 10]	5.2 µM	–	11.5 µM	4.1	40 µM	11.8 µM	9.8 µM	1.8	9.4 µM	–	–	–	–
Cc1c[n+]([Pt-2]([NH3+])([Cl])[Cl])c(C)cn1 [Example 5]	5 µM	–	9 µM	5.8	35 µM	11.5 µM	6 µM	1.6	8 µM	–	–	–	–
Cc1cc(C)[n+]([Pt-2]([NH3+])([Cl])[Cl])n1C [Example 2, (SP-4-3)-amminedichloro(1,3,5-trimethylpyrazole)platinum(II)]	9.2 µM	1.8	15.5 µM	1.8	15.5 µM	8.5 µM	8.5 µM	1.2	11 µM	–	greater than 50 mg/Kg	2.6 fold	–
CCCC(=O)[O][Pt]([NH2])([Cl])([Cl])([NH]C1CCCCC1)[O]C(=O)CCC [bis-butyrato-ammine(cyclohexylamine)dichloroplatinum(IV), reference compound]	0.0066 µM	0.67	0.048 µM	–	–	0.072 µM	–	3.7	0.024 µM	–	–	–	–
[NH2][Pt]1([NH2])[O]C(=O)C2(CCC2)C(=O)[O]1 [carboplatin, diammine[1,1-cyclobutanedicarboxylato (2-)]-O,O′-platinum(II), reference compound]	1.3 µM	2.7	8.8 µM	–	25.9 µM	3.3 µM	1.8 µM	4.5	6 µM	–	–	–	14000 µg/mL
Cc1cc(C)[n+]([Pt-2]([NH3+])([OH])([OH])([Cl])[Cl])[nH]1 [Example 11, (OC-6-43)amminedichlorodihydroxo-(3.5-dimethylpyrazole)platinum(IV)]	2 µM	–	8.2 µM	5.1	37 µM	11 µM	7.2 µM	2.5	5 µM	–	–	–	–
Cc1ncc[n+]([Pt-2]([NH3+])([Cl])[Cl])c1C [Example 6]	3.2 µM	–	6.5 µM	5.1	17.5 µM	6.6 µM	3.4 µM	1.7	5.4 µM	–	–	–	–
Cc1[nH]cc[n+]1[Pt-2]([NH3+])([Cl])[Cl] [Example 8]	5.2 µM	0.8	16.5 µM	–	–	21 µM	–	2.5	12.5 µM	–	–	–	–
cis-ammine(2-methylpyridine)dichloroplatinum(II) [reference compound]	2.2 µM	1.1	6 µM	4.8	12 µM	5.6 µM	2.5 µM	1	2.1 µM	–	–	–	–
N.N.[Cl][Pt][Cl] [cisplatin, [PtCl2(NH3)2], reference compound]	0.11 µM	4.6	1.2 µM	–	5.2 µM	0.26 µM	0.33 µM	6.5	0.71 µM	–	11.3 mg/kg	–	–
Cn1cc[n+]([Pt-2]([NH3+])([Cl])[Cl])c1 [Example 3]	7.6 µM	1.7	12.5 µM	2.6	16.5 µM	7.4 µM	6.4 µM	1.4	10.5 µM	–	–	–	–
